Source: patent US11559517B2, “Promotion of epithelial repair” (Telethon Kids Institute, priority 2018, dated 2023)
Entries after “also recorded” stand apart in the source; their conditions may differ.

What was measured:
Assay type in all cases: cell-based, human
[1] = test system: pAEC from asthmatic children; experiment: Scratch wound repair assay (wound closure), pAEC from asthmatic children; details: for accelerated repair compared to DMSO vehicle: 10 μM, 48 hours treatment post wounding; for promotion of pAEC repair relative to celecoxib: screen at 10 μM, cohort not given
Description: (§1) Two in vitro scratch wound models were used. […] Wound closure was calculated through image analysis by the accompanying live-cell imaging system (Essen Bioscience, Ann Arbor, Mich., USA).
(§2) To assess in vitro wound repair kinetics, linear scratch wounds were created using a commercial monolayer wounding kit. Once confluent, cell cultures were placed in starvation media (BEGM™ without epidermal growth factor) for about 24 hours prior to wounding. At the time of wounding, cell cultures were treated with compound dilution (10 μM), DMSO vehicle (0.05% v/v) or untreated. Wound closure rates were calculated through image analysis by the accompanying live-cell imaging system (Essen Bioscience, Ann Arbor, Mich., USA).

[2] = test system: pAEC from non-asthmatic children; experiment: MTS cell viability assay, pAEC from non-asthmatic children
Description: (§3) Cell viability was assessed using a 3-[4,5-dimethylthiazol-2yl]-5-[3-carboxymethoxyphenyl]-2-[4-sulfophenyl]-2H-tetrazolium inner salt (MTS) assay (Promega).
Cell viability was assessed using a 3-[4,5-dimethylthiazol-2yl]-5-[3-carboxymethoxyphenyl]-2-[4-sulfophenyl]-2H-tetrazolium inner salt (MTS) assay (Promega, Madison, Wis., USA). […]

[3] = test system: pAEC from asthmatic children; experiment: MTS cell viability assay, pAEC from asthmatic children
Description: as §3
Cell viability was assessed using a 3-[4,5-dimethylthiazol-2yl]-5-[3-carboxymethoxyphenyl]-2-[4-sulfophenyl]-2H-tetrazolium inner salt (MTS) assay (Promega, Madison, Wis., USA). Once confluent, cell cultures were treated with 10 μM compound, DMSO vehicle (0.05% v/v) or untreated for 48 hours.

[4] = test system: pAEC from non-asthmatic children; experiment: Scratch wound repair assay (wound closure), pAEC from non-asthmatic children; details: treated at time of scratch wounding; Wortmannin 0.01-10 μM, MK2206 0.01-5 μM
Description: as §1, §2

[5] = test system: leading edge pAEC from non-asthmatic children; experiment: Leading edge cell tracking after scratch wounding, pAEC from non-asthmatic children; details: Wortmannin 0.01-10 μM, MK2206 0.01-5 μM
Description: (§4) Manual Tracking, an ImageJ2 plugin publicly available was utilized for its capacity to manually track cells in two dimensions, the x and y planes. […] The selected cells were tracked over the first 12 h post wounding, where this procedure generated x and y coordinates for the position of the nucleus of each tracked cell at each time point. The x,y coordinates of the tracked cells were exported in a tab delimited format and all tracks were transformed to migrate up towards the y-axis. Graphical representation and analysis of the cell migration parameters was performed using the Chemotaxis and Migration Tool 2.0 (Ibidi®, Martinsried, Bayern, Germany). […] Migration parameters of cell tracks were then quantified including; (1) distance migrated (μm) which represented the displacement of a cell from the start to its endpoint, (2) velocity (μm/min), which is a function of displacement overtime, and (3) directionality (AU), which represents a measurement of the directness or straightness of a cell trajectory and was calculated as a ratio of the cell displacement over the accumulated distance migrated. […] Since directionality is not a direct measure of chemotaxis, the determined forward migration index (FMI) (AU) was then utilized to represent the efficiency of the leading edge cells to migrate towards the center of the wounded area. […]

Akt (serine residue 473) [6] = experiment: In-Cell Western assay of Akt phosphorylation, pAEC from non-asthmatic children; details: concentration series (Wortmannin 0.01-10 μM, MK2206 0.01-5 μM); 12 h and 48 h post treatment
Description: (§5) Cells were plated at 1.2×10^5 cells/cm^2 onto 96-well plates precoated with fibronectin ([…]) and maintained as described earlier. Briefly, following relevant treatments and controls, confluent cell monolayers were fixed with 10% (v/v) NBF for 20 minutes at room temperature and then either permeabilized with 0.1% (v/v) Triton X-100 or incubated with PBS for 25 minutes. Cells were blocked for 90 min at room temperature with the Odyssey® blocking buffer (PBS) (LI-COR Biosciences). Cells were then stained with rabbit anti-human integrin α5 (1:100; clone EPR7854, Abcam), mouse anti-human integrin β1 (1:1000; clone P5D2, Abcam), rabbit anti-human phospho-Akt (Ser473) (1:100; clone D9E, Abcam) or mouse anti-human total Akt (pan) (1:100; clone 40D4, Abcam) for 24 hours at 4° C. Antibody binding was determined using IRDye 800 CW-conjugated goat anti-rabbit IgG (1:800; 925-32211, LI-COR Biosciences) and goat anti-mouse IgG (1:800; 925-32210, LI-COR Biosciences), as well as DRAQ5 (1:10000; DR50200, BioStatus Limited) and Sapphire700 (1:1000; 928-40022, LI-COR Biosciences) for cell number normalization, for 1 hour at RT with gentle shaking in the dark. Specific antibody staining for protein expression was then immediately visualized and quantified using an infrared imaging system (LI-COR Biosciences).

integrin α5 [7] = experiment: On-Cell Western assay of integrin α5 cell membrane expression, pAEC from non-asthmatic children
Description: as §5
After this, cells were washed in 1× phosphate-buffered saline (PBS) and incubated with IRDye-conjugated secondary antibody (1:800 goat anti-rabbit and goat anti-mouse IgG, LI-COR Biosciences, Lincoln, Nebr., USA) containing DRAQ5 (1:10000, BioStatus Limited, Shepshed, United Kingdom) and Sapphire700 (1:1000, LI-COR Biosciences, Lincoln, Nebr., USA) for 1 hour at RT with gentle shaking in a dark room. Cells were then washed for an additional five times in PBS. Specific antibody staining for protein expression was then immediately visualized using an infrared imaging system (LI-COR Biosciences, Lincoln, Nebr., USA

integrin β1 [8] = experiment: On-Cell Western assay of integrin β1 cell membrane expression, pAEC from non-asthmatic children; details: MK2206; 12 h treatment
Description: (§6) Cells were plated at 1.2×10^5 cells/cm^2 onto 96-well plates precoated with fibronectin ([…]) and maintained as described earlier. Briefly, following relevant treatments and controls, confluent cell monolayers were fixed with 10% (v/v) NBF for 20 minutes at room temperature and then either permeabilized with 0.1% (v/v) Triton X-100 or incubated with PBS for 25 minutes. Cells were blocked for 90 min at room temperature with the Odyssey® blocking buffer (PBS) (LI-COR Biosciences). Cells were then stained with rabbit anti-human integrin α5 (1:100; clone EPR7854, Abcam), mouse anti-human integrin β1 (1:1000; clone P5D2, Abcam), rabbit anti-human phospho-Akt (Ser473) (1:100; clone D9E, Abcam) or mouse anti-human total Akt (pan) (1:100; clone 40D4, Abcam) for 24 hours at 4° C. Antibody binding was determined using IRDye 800 CW-conjugated goat anti-rabbit IgG (1:800; 925-32211, LI-COR Biosciences) and goat anti-mouse IgG (1:800; 925-32210, LI-COR Biosciences), as well as DRAQ5 (1:10000; DR50200, BioStatus Limited) and Sapphire700 (1:1000; 928-40022, LI-COR Biosciences) for cell number normalization, for 1 hour at RT with gentle shaking in the dark. Specific antibody staining for protein expression was then immediately visualized and quantified using an infrared imaging system (LI-COR Biosciences). […]

[9] = test system: leading edge pAEC from asthmatic children; experiment: Leading edge cell tracking after scratch wounding, pAEC from asthmatic children; details: SC79 0.5-20 μM
Description: as §4

Akt (serine residue 473) [10] = experiment: In-Cell Western assay of Akt phosphorylation, pAEC from asthmatic children; details: SC79 0.5-20 μM; 12 h and 48 h post treatment
Description: as §5

integrin α5 [11] = experiment: On-Cell Western assay of integrin α5 cell membrane expression, pAEC from asthmatic children; details: 0.5, 2 and 5 μM SC79; 12 h and 48 h
Description: as §6

integrin β1 [12] = experiment: On-Cell Western assay of integrin β1 cell membrane expression, pAEC from asthmatic children; details: 0.5, 2 and 5 μM SC79; 12 h and 48 h
Description: as §6

[13] = test system: pAEC from asthmatic children; experiment: Scratch wound repair assay (wound closure), pAEC from asthmatic children; details: SC79 0.5-20 μM at time of scratch wounding
[14] = 10 μM, 48 hours, change of less than or equal to 20% relative to DMSO vehicle considered non-cytotoxic
[15] = 0.01, 0.1, 1 μM (all concentrations bar the highest)

## NS(=O)(=O)c1ccccc1 [Compound C2, Benzenesulfonamide]
[1]
  accelerated repair compared to DMSO vehicle: no improvement

## Cc1ccc(-c2cc(C(F)(F)F)nn2-c2ccc(S(N)(=O)=O)cc2)cc1 [Compound C3, Celecoxib]
[2]; [14]
  cell viability (MTS): did not display any change in cell viability
[3]; [14]
  cell viability (MTS): did not display any change in cell viability
[3]; 0.01, 0.1, 1, 10 μM, listed as Celecoxib
  cell viability (MTS): did not cause significant cytotoxicity
[3]; 0.01, 0.1, 1, 10 μM, listed as celecoxib
  cell viability (MTS): not cytotoxic

## Cc1ccc(C)c(-c2cc(C(F)(F)F)nn2-c2ccc(S(N)(=O)=O)cc2)c1 [Compound C6, 2,5-Dimethyl-Celecoxib]
[1]
  promotion of pAEC repair relative to celecoxib: comparable efficacy

## CC(=NNc1ccc(S(N)(=O)=O)cc1)c1ccc(C)cc1 [Compound C11]
[1]
  accelerated repair compared to DMSO vehicle: no improvement

## CN1C(C(=O)Nc2ccccn2)=C(O)c2ccccc2S1(=O)=O [Compound C13, Piroxicam]
[1]
  accelerated repair compared to DMSO vehicle: no improvement

## O=C(O)c1cc(/N=N/c2ccc(S(=O)(=O)Nc3ccccn3)cc2)ccc1O [Compound C15, Sulfasalazine]
[1]
  accelerated repair compared to DMSO vehicle: no improvement

## Nc1ccc(S(N)(=O)=O)cc1 [Compound C17, Sulfanilamide]
[1]
  accelerated repair compared to DMSO vehicle: no improvement

## Cc1ccc(-c2cc(C(F)(F)F)n[nH]2)cc1 [Compound C19, 3-Trifluoromethy1-5-(p-tolyl)-1H-pyrazole]
[1]
  accelerated repair compared to DMSO vehicle: no improvement

## CS(=O)(=O)c1ccc(-n2nc(C(F)(F)F)cc2-c2ccc(F)cc2)cc1 [Compound C22, 5-(4-fluorophenyl)-1-[4-(methylsulfonyl)phenyl]-3-(trifluoromethyl)-1H-pyrazole]
[1]
  promotion of pAEC repair relative to celecoxib: to a greater degree than celecoxib

## NC1(c2ccc(-c3nc4ccn5c(=O)[nH]nc5c4cc3-c3ccccc3)cc2)CCC1 [MK2206]
[2]; [15]
  cell viability (MTS): did not cause significant cytotoxicity
[4]
  wound closure rates (effect in words): significant inhibition; also recorded: concentration-dependent reduction in wound closure rates
[5]
  leading edge cell migration (distance migrated, velocity, directionality, yFMI): significant inhibition; also recorded: inhibited distance migrated, velocity, directionality and centrality (yFMI)
Akt (serine residue 473) [6]
  activation/phosphorylation of Akt (Ser473): significant inhibition; also recorded: inhibited activation of Akt
Integrin α5 [7]; 1 μM MK2206, 48 h
  integrin α5 cell membrane expression: significant inhibition; also recorded: Significant reduction
Integrin α5 [7]; MK2206, concentration-dependent, 12 h treatment
  integrin α5 cell membrane expression: concentration-dependent inhibition; also recorded: significant reduction of integrin α5
Integrin α5 [7]; lower concentrations of MK2206 (below 1 μM), 48 h
  integrin α5 cell membrane expression: not with the lower concentrations
Integrin β1 [8]
  integrin β1 cell membrane expression: did not have a significant effect

## CCOC(=O)C1=C(N)Oc2ccc(Cl)cc2C1C(C#N)C(=O)OCC (stereo not drawn) [SC79, 2-Amino-6-chloro-α-cyano-3-(ethoxycarbonyl)-4H-1-benzopyran-4-acetic acid ethyl ester]
[3]; SC79 0.5, 2, 5, 10, 20 μM
  cell viability (MTS): did not alter cell viability; also recorded: did not cause significant cytotoxicity
[9]
  leading edge cell migration (distance migrated, velocity, directionality, yFMI): stimulated leading edge cell migration; also recorded: stimulated distance migrated, velocity, directionality and centrality (yFMI)
Akt (serine residue 473) [10]
  phosphorylation of Akt (Ser473): augment Akt signaling in a concentration-dependent manner; also recorded: resulted in phosphorylation of Akt
Integrin α5 [11]
  integrin α5 cell membrane expression: restored their integrin α5 and β1 expression to equivalent levels to those of non-asthmatic children; also recorded: Significant activation
Integrin β1 [12]
  integrin β1 cell membrane expression: restored their integrin α5 and β1 expression to equivalent levels to those of non-asthmatic children; also recorded: Significant activation
[13]
  wound closure rates (effect in words): significantly enhanced wound closure; also recorded: concentration-dependent increase in wound closure rates

## COC[C@H]1OC(=O)c2coc3c2[C@@]1(C)C1=C(C3=O)[C@@H]2CCC(=O)[C@@]2(C)C[C@H]1OC(C)=O [Wortmannin]
[2]; 10 μM Wortmannin
  cell viability (MTS): significant loss of viability
[2]; [15]
  cell viability (MTS): did not have a significant cytotoxic effect; also recorded: did not cause significant cytotoxicity

## Cc1ccc(C)c(-c2cc(C(F)(F)F)nn2-c2ccc(S(N)(=O)=O)cc2)c1 [dimethyl-Celecoxib]
[3]; 0.01, 0.1, 1, 10 μM
  cell viability (MTS): did not cause significant cytotoxicity
[3]; 0.01, 0.1, 1, 10 μM, listed as dimethyl-celecoxib
  cell viability (MTS): not cytotoxic
